The results in this text go back to ChEMBL document CHEMBL4811263, “Tulipiferamide A, an Alkamide from Liriodendron tulipifera, Exhibits an Anti-Inflammatory Effect via Targeting IKKβ Phosphorylation” (J Nat Prod, 2021).

Each structure is given as a SMILES string.

The first assay concerns RAW264.7. The assay is described as follows: Antiinflammatory activity in mouse RAW264.7 assessed as inhibition of LPS-induced NO production preincubated for 30 mins followed by LPS stimulation measured after 24 hrs by Griess reagent based assay. Type of assay: functional, cell-based. For orientation: Griess reagent forms a coloured azo dye with nitrite.
Turning to `COc1c2c(c3c4c(nccc14)C(=O)c1ccccc1-3)OCO2`, the IC50 was > 50 µM.
On the same count and under the same terms, with `C=C1C(=O)O[C@@H]2/C=C(\C)CC/C=C(\C)C[C@@H](OC(C)=O)[C@@H]12` the figure was 19.8 µM; with `COc1cc(/C=C/C(=O)NCCc2ccc(O)c(OC)c2)ccc1O`, > 50 µM; with `C=CCc1cc(OC)c(O[C@H](C)Cc2cc(OC)c3c(c2)OCO3)c(OC)c1`, > 50 µM.
`O=C1c2ccccc2-c2c3c(cc4ccnc1c24)OCO3` [LIRIODENINE]: the IC50 worked out at 10.5 µM.
The same measure, in the same setting: to `CCCCC/C=C/C=C\C(=O)NCCc1ccccc1` belongs > 50 µM; to `COc1c(OC)c2c3c(nccc3c1OC)C(=O)c1cc3c(cc1-2)OCO3` [OXOPHOEBINE], 34.2 µM; to `CNC(=N)NCCC[C@H](N)C(=O)O` [TILARGININE], 35.5 µM.
On to `COc1cc2c(cc1OC)-c1c(OC)c(OC)cc3ccnc(c13)C2=O` [OXOGLAUCINE], for which the IC50 is > 50 µM.
With `COc1cc(O)c2c(c1)O[C@H](c1ccc(O)cc1)CC2=O` [SAKURANETIN], the IC50 is 21.6 µM.
Still for that read-out and setting: with `C/C=C/c1cc(OC)c(OC(C)Cc2cc(OC)c(OC)c(OC)c2)c(OC)c1` (racemic) the figure was > 50 µM; with `COc1cc(C(=O)C2CO[C@H](c3cc(OC)c(O)c(OC)c3)[C@H]2CO)cc(OC)c1O` (stereo not given in full), > 50 µM; with `O=Cc1ccc(O)cc1` [4-HYDROXYBENZALDEHYDE], > 50 µM.
As for `C=C1C(=O)O[C@@H]2/C=C(\C)CC/C=C(\C)C[C@@H](O)[C@@H]12` [EUPATOLIDE], the IC50 was 7.3 µM.
Same read-out and setting: with `C=CCc1cc(OC)c(OC(C)Cc2cc(OC)c(OC)c(OC)c2)c(OC)c1` (racemic) the figure was > 50 µM; with `COc1cc(C=O)ccc1O` [VANILLIN], > 50 µM.
Still for that read-out and setting: with `O=C(NCCc1ccccc1)c1ccccc1` the figure was > 50 µM; with `C=C1C(=O)O[C@@H]2/C=C(\C)CC/C=C(\C)CC[C@@H]12` [COSTUNOLIDE], > 50 µM.
In the case of `COc1c(OC)c2c3c(nccc3c1OC)C(=O)c1ccccc1-2` [HOMOMOSCHATOLINE], the IC50 is > 50 µM.
On the same count and under the same terms, with `COc1cc2oc(=O)ccc2c(OC)c1OC` [5,6,7-TRIMETHOXYCOUMARIN] the figure was > 50 µM.
As for `COc1cc2c3c(c1OC)-c1ccccc1C[C@H]3N(C(C)=O)CC2`, the IC50 was > 50 µM.
Still for that read-out and setting: to `COc1cc([C@H]2Oc3c(OC)cc(CCCO)cc3[C@@H]2CO)ccc1O` [DIHYDRODEHYDRODICONIFERY ALCOHOL] belongs > 50 µM; to `COc1c2c3c(c(OC)c1OC)-c1cc4c(cc1C[C@@H]3N(C(C)=O)CC2)OCO4`, > 50 µM.
Same read-out and setting: with `COc1c2c3c(c(OC)c1OC)-c1ccccc1C[C@H]3N(C(C)=O)CC2` the figure was 14 µM; with `CC(=O)N1CCc2cc3c(c4c2[C@H]1Cc1ccccc1-4)OCO3`, > 50 µM.
Still for that read-out and setting: with `CCCCC/C=C\CCC(=O)NCCc1ccccc1` the figure was > 50 µM; with `C=C[C@]1(C)C[C@H](O)[C@H]2C(=C)C(=O)O[C@@H]2[C@H]1C(=C)C`, 12 µM; with `COc1cc([C@H]2OC[C@H]3[C@@H]2CO[C@@H]3c2cc(OC)c(O)c(OC)c2)cc(OC)c1O` [SYRINGARESINOL], > 50 µM.
For `CC(=O)N(C)CCc1ccccc1`, the IC50 was > 50 µM.
The same measure, in the same setting: with `COc1cc(C[C@H]2CO[C@H](c3ccc(O)c(OC)c3)[C@H]2CO)ccc1O` [LARICIRESINOL] the figure was > 50 µM.
Take `COc1cc(/C=C/C(=O)NCCc2ccc(O)cc2)ccc1O` [N-TRANS-FERULOYL TYRAMINE]: the IC50 was > 50 µM.
Same read-out and setting: with `C=CCc1cc(OC)c(O)c(OC)c1` [METHOXYEUGENOL] the figure was > 50 µM; with `COc1cc2ccnc3c2c(c1OC)-c1ccccc1C3=O` [LYSICAMINE], 6.4 µM.

Tested on in the next assay: not listed separately
The assay is described as follows: Inhibition of LPS-indued NF-kappaB activation in mouse RAW264.7 cells preincubated for 30 mins followed by LPS stimulation and measured after 10 hrs by luciferase assay. Type of assay: cell-based.
With `COc1c(OC)c2c3c(nccc3c1OC)C(=O)c1cc3c(cc1-2)OCO3` [OXOPHOEBINE], the IC50 amounted to 28.5 µM.
`COc1cc(O)c2c(c1)O[C@H](c1ccc(O)cc1)CC2=O` [SAKURANETIN] displayed an IC50 of 15.5 µM.
Same read-out and setting: with `C=C1C(=O)O[C@@H]2/C=C(\C)CC/C=C(\C)C[C@@H](O)[C@@H]12` [EUPATOLIDE] the figure was 12.2 µM; with `COc1c2c3c(c(OC)c1OC)-c1ccccc1C[C@H]3N(C(C)=O)CC2`, 24.5 µM.
In the case of `C=C[C@]1(C)C[C@H](O)[C@H]2C(=C)C(=O)O[C@@H]2[C@H]1C(=C)C`, the half-inhibitory concentration (IC50) stood at 14.1 µM.
Same read-out and setting: to `NC(=O)Nc1sc(-c2ccc(F)cc2)cc1C(N)=O` belongs 0.022 µM; to `COc1cc2ccnc3c2c(c1OC)-c1ccccc1C3=O` [LYSICAMINE], 17.8 µM.

A word on the IC50: it is the concentration that gives 50% inhibition.
